Reference: ChEMBL document CHEMBL5331047 (Eur J Med Chem, 2022)
pEC50, pIC50: −log10 of the molar value.

Columns and labels:
[1] = biological target: Neuraminidase (Influenza A virus, UniProt B4URF0)
[2] = Oral bioavailability in rat; assay type: ADME, organism-based; details: in vivo
[3] = Oral bioavailability in ferret at 10 mg/kg measured upto 24 hrs by LC-MS/MS assay; assay type: ADME, organism-based, Mustela putorius furo; details: in vivo
[4] = Cmax in rat at 20 mg/kg; assay type: ADME, organism-based; set-up: dose 20 mg/kg; details: in vivo
[5] = AUC in rat at 20 mg/kg; assay type: ADME, organism-based; set-up: dose 20 mg/kg; details: in vivo
[6] = system: Influenza A virus; test: Antiviral activity against influenza A virus H5N1 infected in dog MDCK cells assessed as viral growth inhibition; assay type: functional, organism-based
[7] = AUC in rat at 10 mg/kg; assay type: ADME, organism-based; set-up: dose 10 mg/kg; details: in vivo
[8] = Cmax in rat at 10 mg/kg; assay type: ADME, organism-based; set-up: dose 10 mg/kg; details: in vivo

For CC(=O)N[C@@H]1[C@@H](N)CC(C(=O)O)=C[C@H]1OC1CCSC1 (some centres undefined), the pIC50 [1] was 8.54.
CCC(CC)[C@H](NC(C)=O)[C@@H]1[C@H](O)[C@@H](C(=O)O)C[C@H]1NC(=N)N [PERAMIVIR ANHYDROUS] gave a bioavailability [2] of 2.5%.
Compound CCCCCCCC(=O)OC[C@@H](O)[C@@H](OC)[C@@H]1OC(C(=O)O)=C[C@H](NC(=N)N)[C@H]1NC(C)=O [LANINAMIVIR OCTANOATE] has a bioavailability [3] of 3.5%.
CCC(CC)O[C@@H]1C=C(C(=O)O)C[C@H](NCc2ccc(Sc3ccccc3)cc2)[C@H]1NC(C)=O gave a Cmax [4] of 407 ng/mL and an AUC [5] of 1500 ng·h/mL.
With CCC(CC)O[C@@H]1C=C(C(=O)O)C[C@H](NC(=O)COCCOCCOCCOCCN[C@H](C(=O)N2C[C@H](O)CC2C(=O)NCc2ccc(-c3scnc3C)cc2)C(C)(C)C)[C@H]1NC(C)=O (some centres undefined) the pEC50 [6] was 6.54.
CCC(CC)O[C@@H]1C=C(C(=O)O)CC(N)[C@H]1NC(C)=O (some centres undefined) showed an AUC [7] of 300 ng·h/mL, a Cmax [8] of 30 ng/mL and a pEC50 [6] of 5.64.
